Article PMC11475320 (2024)

Experiments:
Test in all cases: CD melting at 260 nm
[1] = tested on: AsGq-4625 (DNA, G4, strand 2: 2'-OMe at 1-5 and 16-20 (text b19; Table S1 footnote says 2'-modification with hydroxy group); phosphorothioate at all linkages) GGTGGTGGTGGTTGTGGTGGTGGTGGAACGGAGGCTGGGAT/AAGGCATCCCAGCCTCCGUU; conditions: K+ 40 mM, Mg2+ from TAMg buffer (0.04×), 2% DMF, 4 μM ZnPc, 16 μM DNA, derived from two Tm (52.3, 53.1)
[2] = tested on: AsGq (G-quadruplex of As4625') (DNA, G4) GGTGGTGGTGGTTGTGGTGGTGGTGGAACGGAGGCTGGGAT; conditions: K+ 40 mM, Mg2+ from TAMg buffer (0.04×), 2% DMF, 4 μM ZnPc, 16 μM DNA, derived from two Tm (53.0, 54.6)
[3] = tested on: As1411 (DNA, G4) GGTGGTGGTGGTTGTGGTGGTGGTGG; conditions: K+ 40 mM, Mg2+ from TAMg buffer (0.04×), 2% DMF, 4 μM ZnPc, 16 μM DNA, derived from two Tm (59.8, 61.7)

[Zn+2].c1ccc2c(c1)-c1nc3nc(nc4[n-]c(nc5[n-]c(nc-2n1)c1ccccc51)c1ccccc41)-c1ccccc1-3
ΔTm [1]: 0.8 °C | ΔTm [2]: 1.6 °C | ΔTm [3]: 1.9 °C
